# According to patent US10709744B1, “Probiotic biofilm suppositories” (priority 2019, dated 2020):
# Read-outs that look alike come from different tables or passages of the source.
# Key:
# Type in all cases: cell-based
# [1] = system: LP Bacteria in form of biofilm; experiment: Effect of additives (cranberries, ascorbic acid) on Bacteria in form of biofilm survival and growth
# Text: High vaginal pH is associated with an increase of vaginal pathogens and the acidity of the vagina has long been understood to be a protective mechanism against colonization of anaerobes pathogens while creating a favourable environment for the lactobacilli to thrive. Examining the effect of different additives (cranberries and ascorbic acid) on Bacteria in form of biofilm LP (as part of a small scale). […] The aim is to add one of these additives along with the Bacteria in form of biofilm in the suppository composition. As such, their effect on Bacteria in form of biofilm survival and growth was tested.
# [2] = system: Lactobacillus rhamnosus; experiment: Antibiotic MIC strip assay, planktonic LRh
# Method: (§1) For antibiotic assay, and overnight culture was diluted to an optical start density (OD) of 0.13. […] Plates were incubated at 37° C. for 24 h before minimum inhibitory concentration (MIC) value were determined.
# [3] = system: Lactobacillus iners; experiment: Antibiotic MIC strip assay, planktonic LI
# Method: as §1
# [4] = system: Lactobacillus jensenii; experiment: Antibiotic MIC strip assay, planktonic LJ; details: for MIC: Lactobacillus jensenii
# Method: as §1
# [5] = system: Lactobacillus gasseri; experiment: Antibiotic MIC strip assay, planktonic LG; details: for MIC: Lactobacillus gasseri
# Method: as §1
# [6] = system: Lactobacillus crispatus; experiment: Antibiotic MIC strip assay, planktonic LCr; details: for MIC: Lactobacillus crispatus
# Method: as §1
# [7] = Lacticaseibacillus rhamnosus, planktonic LRh, Table 7, read-out: MIC
# [8] = Lacticaseibacillus rhamnosus, planktonic LRh, read-out: MIC
# [9] = planktonic LI, MIC strips, 24 h 37° C., read-out: MIC
# [10] = planktonic LJ, MIC strips, 24 h 37° C., read-out: MIC
# [11] = planktonic LG, MIC strips, 24 h 37° C., read-out: MIC
# [12] = planktonic LCr, MIC strips, 24 h 37° C., read-out: MIC
Structure (SMILES),"MIC [2, 7]","MIC [2, 8]","MIC [3, 9]","MIC [4, 10]","MIC [5, 11]","MIC [6, 12]",other results
"O=C1O[C@H]([C@@H](O)CO)C(O)=C1O [AA, Ascorbic Acid]",–,–,–,–,–,–,effect of addition of supplement on Bacteria in form of biofilm growth [1]: did not affect
"CC1(C)S[C@@H]2[C@H](NC(=O)C(C(=O)O)c3ccccc3)C(=O)N2[C@H]1C(=O)O (stereo partly drawn) [CB, carbenicillin]",4 µg/mL,4 µg/mL,64 µg/mL,8 µg/mL,4 µg/mL,4 µg/mL,–
"O=C(O)c1cn(C2CC2)c2cc(N3CCNCC3)c(F)cc2c1=O [CIP, ciprofloxacin]",2 µg/mL,0.25 µg/mL,–,> 256 µg/mL,> 256 µg/mL,> 256 µg/mL,susceptibility of planktonic bacteria to antibiotic ([4]; planktonic LJ): not susceptible; susceptibility of planktonic bacteria to antibiotic ([5]; planktonic LG): full resistance; susceptibility of planktonic bacteria to antibiotic ([6]; planktonic LCr): not susceptible
"CO[C@@H]1[C@@H](OC(N)=O)[C@@H](O)[C@H](Oc2ccc3c(O)c(NC(=O)c4ccc(O)c(CC=C(C)C)c4)c(=O)oc3c2C)OC1(C)C [NVB, novobiocin]",2 µg/mL,2 µg/mL,16 µg/mL,2 µg/mL,2 µg/mL,2 µg/mL,–
"CN[C@H](CC(C)C)C(=O)N[C@H]1C(=O)N[C@@H](CC(N)=O)C(=O)N[C@H]2C(=O)N[C@H]3C(=O)N[C@H](C(=O)N[C@H](C(=O)O)c4cc(O)cc(O)c4-c4cc3ccc4O)[C@H](O)c3ccc(c(Cl)c3)Oc3cc2cc(c3O[C@@H]2O[C@H](CO)[C@@H](O)[C@H](O)[C@H]2O[C@H]2C[C@](C)(N)[C@H](O)[C@H](C)O2)Oc2ccc(cc2Cl)[C@H]1O [VAN, vancomycin]",–,–,–,–,–,–,"MIC ([2]; Lacticaseibacillus rhamnosus): > 256 µg/mL; MIC ([2]; planktonic LRh, Table 7): >256 µg/mL; MIC ([3]; 24 h): 4 µg/mL; MIC ([4]; 24 h): 1.5 µg/mL; MIC ([5]; 24 h): 1.5 µg/mL; MIC ([6]; 24 h): 1.5 µg/mL"
